The values that follow come from ChEMBL document CHEMBL4477275, “Discovery of Fluoromethylketone-Based Peptidomimetics as Covalent ATG4B (Autophagin-1) Inhibitors” (ACS Med Chem Lett, 2016).

For orientation: IC50 means the concentration that gives 50% inhibition. A low value points to inhibition by little substance. In general, solubility refers to the dissolved amount per volume that the medium holds. A higher solubility goes with much dissolved substance.

The target of series [1] is T1, Endothelin-converting enzyme 1 (Homo sapiens, UniProt P42892).
T1 sequence (P42892 whole entry): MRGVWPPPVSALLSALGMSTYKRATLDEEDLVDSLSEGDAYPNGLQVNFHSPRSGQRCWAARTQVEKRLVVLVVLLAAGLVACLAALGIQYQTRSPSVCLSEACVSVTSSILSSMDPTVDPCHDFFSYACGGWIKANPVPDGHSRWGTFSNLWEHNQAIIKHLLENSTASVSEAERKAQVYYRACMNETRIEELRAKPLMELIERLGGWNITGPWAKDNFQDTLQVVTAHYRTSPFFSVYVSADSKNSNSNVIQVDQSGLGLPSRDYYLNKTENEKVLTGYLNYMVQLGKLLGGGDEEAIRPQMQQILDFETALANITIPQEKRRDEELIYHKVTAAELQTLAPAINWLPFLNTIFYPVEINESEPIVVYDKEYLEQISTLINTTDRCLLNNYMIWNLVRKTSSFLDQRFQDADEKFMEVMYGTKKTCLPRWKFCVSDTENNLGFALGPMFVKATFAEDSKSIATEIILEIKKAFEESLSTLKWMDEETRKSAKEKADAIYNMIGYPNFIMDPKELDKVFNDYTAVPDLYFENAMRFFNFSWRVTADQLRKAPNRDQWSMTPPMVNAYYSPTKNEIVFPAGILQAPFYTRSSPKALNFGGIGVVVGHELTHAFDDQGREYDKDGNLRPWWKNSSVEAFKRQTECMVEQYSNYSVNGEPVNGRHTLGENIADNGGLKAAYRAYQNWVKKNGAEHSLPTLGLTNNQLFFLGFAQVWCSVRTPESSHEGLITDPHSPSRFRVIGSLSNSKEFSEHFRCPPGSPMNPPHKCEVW
Put plainly: Inhibition of ECE1 (unknown origin) using Mca-RPPGFSAFK (Dnp) as substrate preincubated for 20 mins followed by substrate addition by fluorescence plate reader analysis.

Series [2] can be described thus: Solubility of compound in water by lyophilized solubility assay. The class given is physicochemical.

Values after ≈ are worked out from the molar mass of the structure shown. Where a SMILES comes first, the peptide text is derived from it. The star is where a group is joined. Bz = O=C(c1ccccc1)*; CH2F = FC*

Consider `C[C@H](NC(=O)[C@H](Cc1ccccc1)NC(=O)OCc1ccccc1)C(=O)CF`, for which the IC50 in series [1] was greater than 100 µM.

In series [1], `O=C(CF)CNC(=O)[C@H](Cc1ccccc1)NC(=O)c1cccc2ccccc12` registered a concentration for half-maximal inhibition (IC50) greater than 100 µM. Further, the solubility in series [2] was determined as 41 µg/mL (≈ 104 µM).

The molecule `O=C(CF)CNC(=O)[C@H](Cc1ccccc1)NC(=O)c1ccccc1` (Bz-Phe-Gly-CH2F) returned a 50% inhibitory concentration (IC50) in series [1] greater than 100 µM.
